The record followed here is patent US10899910B2, “Quaternary cationic polymers” (ECOLAB USA, INC., priority 2016, dated 2021).

Series [1] can be described thus: Surface tension measurement (Tracker tensiometer). In kind it is physicochemical. As to conditions: room temperature. Here is the method:
Surface tension measurements were conducted on a Tracker tensiometer (Teclis Instruments) at room temperature. Various concentrations of surfactant solutions were prepared and measurements were conducted.
The surface tension as a function of concentration of the cationic surfactant samples were measured and are listed in Table 2, where NT means not tested.

Series [2] in a line: Corrosion bubble cell test (Linear Polarization Resistance). As to conditions: 2 ppm with 1% 2ME synergist, 80° C. Here is the method:
(§1) Cationic polymer salts were evaluated for corrosion performance as compared to a C12-C18 alkyl dimethyl benzyl ammonium chloride via a bubble test procedure. The bubble test simulates low flow areas where little or no mixing of water and oil occurs. The test was conducted using brine (80% of the brine being 3% sodium chloride brine and 20% of the brine being a hydrocarbon containing 75% LVT-200 kerosene oil and 25% xylene). The brine was placed into kettles and purged with carbon dioxide. The brine was continually purged with carbon dioxide to saturate the brine prior to starting the test. After the test began, the test cell was blanketed with carbon dioxide one hour prior to electrode insertion and through the duration of the test to maintain saturation. The kettles were stirred at 150 revolutions per minute (rpm) for the duration of the test to maintain thermal equilibrium at 80° C. The corrosion rate was measured by Linear Polarization Resistance (LPR) techniques. The working electrode used was carbon steel. The counter and reference electrodes were both 1018 carbon steel. The electrodes were all cleaned and polished prior to testing. Data were collected for three hours before 20 ppm of each of the compositions (containing 2 ppm of each of various pentaquaternary cationic polymer salts or the comparative C12-C18 alkyl dimethyl benzyl ammonium chloride and 1% 2-mercaptoethanol (2ME) as synergist in an organic solvent) was dosed into its respective cell. Data were collected overnight. A low concentration of the compositions was used to differentiate between the compositions.
Corrosion bubble cell tests were performed according to the method of Example A1 to evaluate a hexaquaternary cationic polymer salt for corrosion performance as compared to a C12-C18 alkyl dimethyl benzyl ammonium chloride. Data were collected for three hours before 20 ppm of each of the compositions (containing 2 ppm of a hexaquaternary cationic polymer salt or the comparative C12-C18 alkyl dimethyl benzyl ammonium chloride and 1% 2ME as synergist in an organic solvent) was dosed into its respective cell. Data were collected overnight. A low concentration of the compositions was used to differentiate between the compositions.
as §1, with “six” for “three”, “polyethyleneimine-based” for “pentaquaternary”, “cell. However, for the comparative composition, data was only collected three hours before addition of the compositions.” for “cell.”

For series [3], the system named is collection of aerobic bacteria from 30 water samples in cooling towers across North America. In words: Biofilm reduction (biofilm inhibition test, stain absorbance at 590 nm). As to conditions: for (Comp. - Single Quat 2)*100 / Single Quat 2: biofilm reduction relative to Single Quat 2. In kind it is cell-based. How it is done:
Biofilm reduction experiments were conducted to test the efficacy of multi-quaternary cationic polymers compared to single quaternary compounds. Two different compositions were prepared containing single quaternary compounds: a composition (Single Quat 1) comprising about 50% by weight bisoctyl dimethyl ammonium chloride (CAS #5538-94-3) and about 5-10% by weight glycerin; and a composition (Single Quat 2) comprising about 50% by weight didecyl-dimethyl ammonium chloride (CAS #7173-51-5) and about 10-30% by weight ethanol. The test bacteria comprised a collection of aerobic bacteria from 30 water samples in cooling towers across North America. Different concentrations of cationic polymer salts and single quaternary compounds were tested ranging from about 0.8 ppm to about 1000 ppm. Using the biofilm inhibition test protocols, the absorbed stains were extracted and absorbance was measured at 590 nm. The biofilm reduction was calculated by comparing the absorbance of treated vs untreated controls, then averaged over six replicates.

The mark [4] stands for this setting: CO2-saturated brine/hydrocarbon, three hours baseline (Tables 8, 9).

With `CCCCCCCCCCCCCCCCCC[N+](C)(C)CC(O)CN(CCN(CCN(CC(O)C[N+](C)(C)CCCCCCCCCCCCCCCCCC)CC(O)C[N+](C)(C)CCCCCCCCCCCCCCCCCC)CC(O)C[N+](C)(C)C)CC(O)C[N+](C)(C)CCCCCCCCCCCCCCCCCC.[Cl-].[Cl-].[Cl-].[Cl-].[Cl-]` (stereo not drawn) [Compound 11], the Surface tension in series [1] (concentration 0.010 %) was determined as 63.52 mN/m; in series [1] (concentration 0.025 %), 60.01 mN/m; in series [1] (concentration 0.050 %) it was 56.35 mN/m; in series [1] (concentration 0.100 %), 53.23 mN/m; in series [1] (concentration 0.200 %) it was 50.16 mN/m; in series [1] (concentration 0.500 %), 47.38 mN/m. The compound also had a Surface tension in series [1] (concentration 1.000 %) of 46.58 mN/m. Further, the “% Protection” value in series [2] (setting [4]) stood at 76%.
On to `CCCCCCCCCCCCCCCCCC[N+](C)(C)CC(O)CN(CCN(CCN(CC(O)C[N+](C)(C)C)CC(O)C[N+](C)(C)C)CC(O)C[N+](C)(C)C)CC(O)C[N+](C)(C)C.[Cl-].[Cl-].[Cl-].[Cl-].[Cl-]` (stereo not drawn) [Compound 7], for which the Surface tension in series [1] (concentration 0.010 %) turned out to be 73.70 mN/m; in series [1] (concentration 0.025 %) it was 72.05 mN/m; in series [1] (concentration 0.050 %), 64.84 mN/m; in series [1] (concentration 0.100 %) it was 60.93 mN/m; in series [1] (concentration 0.200 %), 57.12 mN/m; in series [1] (concentration 0.500 %) it was 55.13 mN/m. Moreover, the Biofilm reduction in series [3] (active conc. 0.8 ppm) worked out at 22.9%; in series [3] (active conc. 1.6 ppm) it was 12.7%; in series [3] (active conc. 3.0 ppm), 46.7%; in series [3] (active conc. 6.0 ppm) it was 23.5%; in series [3] (active conc. 8.0 ppm) it was 54.9%; in series [3] (active conc. 12.0 ppm), 65.1%. Further, the Biofilm reduction in series [3] (active conc. 16.0 ppm) was determined as 90.6%; in series [3] (active conc. 25.0 ppm), 90.6%; in series [3] (active conc. 31.0 ppm), 94.7%; in series [3] (active conc. 50.0 ppm), 93.0%; in series [3] (active conc. 62.0 ppm), 96.6%; in series [3] (active conc. 100.0 ppm) it was 79.3%. Besides, the Biofilm reduction in series [3] (active conc. 125.0 ppm) came out at 96.6%; in series [3] (active conc. 250.0 ppm), 97.1%; in series [3] (active conc. 500.0 ppm), 97.8%; in series [3] (active conc. 1000.0 ppm), 98.4%. Also, the “(Comp. - Single Quat 2)*100 / Single Quat 2” value was 106.8% in series [3] (active conc. 0.8 ppm); 321.3% in series [3] (active conc. 1.6 ppm); 35.5% in series [3] (active conc. 3.0 ppm); 195.0% in series [3] (active conc. 6.0 ppm); −20.8% in series [3] (active conc. 8.0 ppm); 24.2% in series [3] (active conc. 12.0 ppm). Further, the “(Comp. - Single Quat 2)*100 / Single Quat 2” value is recorded as 10.9% in series [3] (active conc. 16.0 ppm); 12.9% in series [3] (active conc. 25.0 ppm); 16.0% in series [3] (active conc. 31.0 ppm); 15.7% in series [3] (active conc. 50.0 ppm); 47.6% in series [3] (active conc. 62.0 ppm); 608.5% in series [3] (active conc. 100.0 ppm). The “(Comp. - Single Quat 2)*100 / Single Quat 2” value in series [3] (active conc. 125.0 ppm) is on record as 1517.3%; in series [3] (active conc. 250.0 ppm), 15.3%; in series [3] (active conc. 500.0 ppm), 6.3%; in series [3] (active conc. 1000.0 ppm), 63.7%. Moreover, in series [3] (at concentrations as low as about 12 ppm), the “biofilm reduction compared with the Single Quat 2 composition” value was “reduced biofilms to a greater extent than the Single Quat 2 composition”. For the same compound, the “% Protection” value in series [2] (setting [4]) was found to be 64%.
With `CCCCCCCCCCCCCCCCCC[N+](C)(C)CC(O)CN(CCN(CCN(CC(O)C[N+](C)(C)CCCCCCCCCCCCCCCCCC)CC(O)C[N+](C)(C)CCCCCCCCCCCCCCCCCC)CC(O)C[N+](C)(C)CCCCCCCCCCCCCCCCCC)CCN(CC(O)C[N+](C)(C)CCCCCCCCCCCCCCCCCC)CC(O)C[N+](C)(C)CCCCCCCCCCCCCCCCCC.[Cl-].[Cl-].[Cl-].[Cl-].[Cl-].[Cl-]` (stereo not drawn) [Compound 13], the Surface tension in series [1] (concentration 0.010 %) is 63.28 mN/m; in series [1] (concentration 0.025 %), 59.04 mN/m; in series [1] (concentration 0.050 %), 55.36 mN/m; in series [1] (concentration 0.100 %), 52.65 mN/m; in series [1] (concentration 0.200 %), 50.31 mN/m; in series [1] (concentration 0.500 %) it was 48.02 mN/m. The Surface tension in series [1] (concentration 1.000 %) worked out at 47.78 mN/m. Besides, the “% Protection” value in series [2] (setting [4]) worked out at 52%.
On to `CCCCCCCCCCCCCCCCCC[N+](C)(C)CC(O)CN(CCN(CC(O)C[N+](C)(C)CCCCCCCCCCCCCCCCCC)CC(O)C[N+](C)(C)CCCCCCCCCCCCCCCCCC)CCN(CC(O)C[N+](C)(C)CCCCCCCCCCCCCCCCCC)CC(O)C[N+](C)(C)CCCCCCCCCCCCCCCCCC.[Cl-].[Cl-].[Cl-].[Cl-].[Cl-]` (stereo not drawn) [Compound 12], for which the Surface tension in series [1] (concentration 0.010 %) came to 63.16 mN/m; in series [1] (concentration 0.025 %), 55.77 mN/m; in series [1] (concentration 0.050 %), 51.89 mN/m; in series [1] (concentration 0.100 %) it was 49.42 mN/m; in series [1] (concentration 0.200 %), 47.02 mN/m; in series [1] (concentration 0.500 %), 45.02 mN/m. The Surface tension in series [1] (concentration 1.000 %) was 44.22 mN/m; in series [1] (concentration 1.500 %) it was 43.46 mN/m; in series [1] (concentration 2.000 %), 42.97 mN/m. Further, in series [2] (setting [4]), the “% Protection” value came to 55%.
In the case of `CCCCCCCCCCCCCCCCCC[N+](C)(C)CC(O)CN(CCN(CCN(CC(O)C[N+](C)(C)CCCCCCCCCCCCCCCCCC)CC(O)C[N+](C)(C)CCCCCCCCCCCCCCCCCC)CC(O)C[N+](C)(C)C)CC(O)C[N+](C)(C)C.[Cl-].[Cl-].[Cl-].[Cl-].[Cl-]` (stereo not drawn) [Compound 10], the Surface tension was 70.99 mN/m in series [1] (concentration 0.010 %); 61.99 mN/m in series [1] (concentration 0.025 %); 57.33 mN/m in series [1] (concentration 0.050 %); 52.64 mN/m in series [1] (concentration 0.100 %); 50.58 mN/m in series [1] (concentration 0.200 %); 47.92 mN/m in series [1] (concentration 0.500 %). Besides, the Surface tension in series [1] (concentration 1.000 %) worked out at 47.48 mN/m.
Turning to “C12-C18 alkyl dimethyl benzyl ammonium chloride [reference compound]”, the “% Protection” value in series [2] (six hours baseline (comparative: three hours) (Table 10)) and in series [2] (setting [4]) was 38% in each case.
